This is an account of results in patent US20110230368A1, “High Throughput Assays for TRPM7” (The Queen's Medical Center, priority 2009, published 2011).

Read-outs that look alike come from different tables or passages of the source.

In data set [1] the target is T1, TRPM7 (Mus musculus, UniProt Q923J1). More on the design: host or cells: TRPM7-HEK293 and CHOK1-TRPM7 cells as reported earlier. The note with it: cited from earlier work.
A further data set concerns the target murine TRPM7 (Mus musculus, UniProt Q923J1). The following applies: for dose dependence of inhibition of TRPM7-mediated fura-2 quench by Mn2+: serial dilutions, 15 min pre-incubation.
Data set [2] concerns the target T1, TRPM7. The experiment in a line: Whole-cell patch-clamp of TRPM7 currents in HEK293-TRPM7. More on the design: FLAG; expressed in transfected cells; host or cells: tetracycline-inducible HEK293 cells (pcDNA4/TO vector). The following applies: for IC50: read-out: IC50, inhibition of TRPM7 currents. In kind it is cell-based. As for the experimental part:
Error bars represent S.E.M. Corresponding I/V relationships are representative currents in response to voltage ramps obtained at 500 s. […] Currents were extracted at +80 mV at 500 s, normalized to the maximal current amplitude before application (200 s), plotted against waixenicin A concentration, and approximated by dose-response fit function (n=8-10). […] Same analysis as in FIG. 9A. Error bars represent S.E.M.
Patch-clamp experiments were performed in the whole-cell configuration at 24° C. All data were acquired with PatchMaster (HEKA) software controlling an EPC-9 amplifier (HEKA, Lambrecht, Germany) and analyzed using FitMaster (HEKA) and IGOR PRO (Wavemetrics, USA). Voltage ramps of 50 ms spanning from −100 to +100 mV were delivered from a holding potential of 0 mV at a rate of 0.5 Hz. Voltages were corrected for liquid junction potentials (10 mV). Currents were filtered at 2.9 kHz and digitized at 100 μs intervals. Current amplitudes were extracted at +80 mV and −80 mV for analysis and display.
To activate TRPM7 currents, intracellular Mg^2+ and Mg-ATP were washed out by perfusion with Mg^2+- and ATP-free internal solution. Whole-cell currents were elicited by voltage ramps from −100 to +100 mV delivered at 0.5 Hz and current amplitudes were extracted at +80 mV and plotted versus time of the experiment. […] The corresponding current-voltage (I/V) relationships are illustrated by representative ramp currents extracted at 500 s. […] Outward and inward TRPM7 currents responded in a similar manner to waixenicin A treatment (FIG. 10A), resulting in the same IC50.
To better mimic physiologic conditions, we clamped the intracellular solution to 700 μM free internal Mg^2+ and only omitted Mg-ATP to achieve TRPM7 activation. […] The corresponding I/V relationships are illustrated by representative ramp currents.

[3] abbreviates: read-out: IC50, inhibition of the TRPM7-mediated fura-2 quench by Mn2+, TRPM7-HEK293, 15 min pre-incubation at 37° C., 10 mM MnCl2, endpoint 10 s after MnCl2 addition.

T1 sequence (Q923J1 whole entry): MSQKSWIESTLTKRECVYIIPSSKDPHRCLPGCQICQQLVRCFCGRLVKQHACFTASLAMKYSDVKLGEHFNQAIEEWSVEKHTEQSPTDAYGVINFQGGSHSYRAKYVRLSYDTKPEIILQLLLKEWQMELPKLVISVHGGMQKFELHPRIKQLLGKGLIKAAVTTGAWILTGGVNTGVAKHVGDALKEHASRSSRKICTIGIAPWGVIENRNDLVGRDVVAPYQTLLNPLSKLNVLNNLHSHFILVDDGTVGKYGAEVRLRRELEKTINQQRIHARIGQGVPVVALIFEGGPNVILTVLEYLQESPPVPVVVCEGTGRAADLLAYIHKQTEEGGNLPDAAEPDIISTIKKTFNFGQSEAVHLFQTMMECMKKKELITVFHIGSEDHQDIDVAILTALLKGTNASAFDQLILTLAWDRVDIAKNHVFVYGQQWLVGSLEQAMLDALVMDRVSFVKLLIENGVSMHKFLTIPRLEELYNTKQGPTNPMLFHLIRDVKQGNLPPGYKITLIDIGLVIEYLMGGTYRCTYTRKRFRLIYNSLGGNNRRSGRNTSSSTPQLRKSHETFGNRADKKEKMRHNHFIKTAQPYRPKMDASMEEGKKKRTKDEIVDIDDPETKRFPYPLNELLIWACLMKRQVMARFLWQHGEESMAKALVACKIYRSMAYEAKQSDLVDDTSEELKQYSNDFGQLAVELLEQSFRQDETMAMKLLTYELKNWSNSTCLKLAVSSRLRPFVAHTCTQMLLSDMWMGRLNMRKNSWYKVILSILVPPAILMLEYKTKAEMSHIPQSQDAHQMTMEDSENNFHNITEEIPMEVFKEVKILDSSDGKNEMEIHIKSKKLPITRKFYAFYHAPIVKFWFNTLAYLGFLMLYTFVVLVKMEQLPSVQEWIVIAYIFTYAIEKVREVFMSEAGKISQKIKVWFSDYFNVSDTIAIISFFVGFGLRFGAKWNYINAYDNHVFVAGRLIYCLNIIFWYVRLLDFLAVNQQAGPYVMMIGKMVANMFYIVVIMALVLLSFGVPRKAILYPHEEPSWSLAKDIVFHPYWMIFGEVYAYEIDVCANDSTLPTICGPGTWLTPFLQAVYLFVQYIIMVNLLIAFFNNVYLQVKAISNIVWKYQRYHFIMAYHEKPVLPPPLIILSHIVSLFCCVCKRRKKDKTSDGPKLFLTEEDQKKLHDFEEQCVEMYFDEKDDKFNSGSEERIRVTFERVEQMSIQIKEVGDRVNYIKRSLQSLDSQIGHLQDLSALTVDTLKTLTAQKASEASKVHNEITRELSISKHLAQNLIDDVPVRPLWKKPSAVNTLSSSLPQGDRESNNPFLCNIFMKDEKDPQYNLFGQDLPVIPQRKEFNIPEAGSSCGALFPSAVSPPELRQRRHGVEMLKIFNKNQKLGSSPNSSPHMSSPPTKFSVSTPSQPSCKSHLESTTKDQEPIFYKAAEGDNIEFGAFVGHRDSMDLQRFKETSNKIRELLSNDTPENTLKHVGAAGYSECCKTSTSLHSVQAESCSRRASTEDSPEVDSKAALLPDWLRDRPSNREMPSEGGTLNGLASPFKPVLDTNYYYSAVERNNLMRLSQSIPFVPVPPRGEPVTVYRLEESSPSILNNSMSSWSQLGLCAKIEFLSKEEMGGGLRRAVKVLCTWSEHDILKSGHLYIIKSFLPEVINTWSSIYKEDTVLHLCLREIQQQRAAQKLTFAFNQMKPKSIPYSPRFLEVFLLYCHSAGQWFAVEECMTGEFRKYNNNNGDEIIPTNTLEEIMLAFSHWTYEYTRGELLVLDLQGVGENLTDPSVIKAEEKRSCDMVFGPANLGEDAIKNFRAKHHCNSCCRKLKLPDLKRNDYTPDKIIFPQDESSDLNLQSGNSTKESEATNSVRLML
murine TRPM7, sequence (Q923J1 whole entry): as above
Protocol for murine TRPM7: Wild type (non-transfected) human embryonic kidney (WT-HEK293) cells and tetracycline-inducible HEK293 cells, stably transfected with a FLAG-murine TRPM7/pcDNA4/TO construct (TRPM7-HEK293), were cultured in a humidified incubator, at 37° C. and 5% CO2, in DMEM supplemented with 10% FBS and 2 mM L-glutamine. Wild type HEK293 culture medium was supplemented with 100 U/mL penicillin and 0.10 mg/mL streptomycin. TRPM7-HEK293 culture medium was supplemented with 5 μg/mL blasticidin and 0.4 mg/mL zeocin.
TRPM7 channel conductance was monitored using a FlexStation 3 scanning fluorometer (Molecular Devices, Sunnyvale, Calif.) to monitor the Ca^2+-independent (360 nm excitation/510 nm emission) fura-2 quench by Mn^2+ in TRPM7 overexpressing HEK293 cells. The FlexStation 3 measured the fluorescent signal intensity in relative fluorescence units (RFU), at 1.5 s intervals for 60 s using a beam diameter of 1.5-2.0 mm. Following baseline measurements, Mn^2+ was added extracellularly and changes in cytosolic [Mn^2+] were monitored as the loss of relative fluorescence caused by fura-2 quenching. TRPM7-HEK293 cells (30,000, 60,000 or 120,000 cells/well) were plated in poly-L-lysine coated, black clear-bottom 96-well plates (Greiner Bio-One, Monroe, N.C.). Subsequent TRPM7-expression was induced 2-3 h post plating by the addition of 1 μg/mL tetracycline. The culture medium was completely removed at 16-18 h post induction and replaced with the following fura-2 loading-buffer: KRH buffer supplemented with 2 μM fura-2-AM, with or without 2 mM probenecid, and with or without 0.1-0.3% pluronic F-127. Following variable incubation times (30, 45 and 60 min at 25 or 37° C.) the loading buffer was removed and replaced with assay buffer (KRH). The plates were then transferred to a room temperature (25° C.) or pre-warmed (37° C.) FlexStation which also contained a clear V-bottom 96-well compound plate (Greiner Bio-One) with vehicle or appropriate test substance solutions diluted with KRH. Cells were initially incubated for 15 min with the appropriate test substance solutions. Just prior to the addition of 1 or 10 mM MnCl2 the baseline fluorescence was recorded for 20 s. The Ca^2+-independent, TRPM7-mediated fura-2 quench by Mn^2+ was then recorded for 40 s.
Fluorescence data was collected in SoftMax Pro (Molecular Devices) and processed in Microsoft Excel 2007. Replicate fluorescence traces (time vs. intensity) were averaged and the Z′-factors were calculated. Mean, standard deviation (sdev), and Z′-factors at each time point were plotted using IGOR PRO (Wavemetrics). […] These values were background-corrected (WT-HEK293 signal subtracted) and normalized to vehicle controls.
TRPM7-HEK293 cells and HEK293 cells were plated at 60,000 cells/well. Cells were incubated at 37° C. for 60 min with KRH containing 2 mM probenecid, 0.1% pluronic F-127, and 2 μM fura-2-AM. After a wash step, the cells were pre-incubated with LaCl3 (serial diluted 2:1 from 7.0 mM to 9.6 μM) or 2-APB (serial diluted 2:1 from 500-0.69 μM) at 37° C. for 15 min during baseline measurements.

`NCCOB(c1ccccc1)c1ccccc1` [2-APB, 2-aminoethoxydiphenyl borate]: the “stability of stock solution in cold storage” value (-20° C., 50 mM in MeOH) is reported as “apparent compound degradation over the course of one week”. Also, the “stability of dried film, vacuum packed aliquots” value (stored at -20° C.) is recorded as “only remained fully potent when used within a two month period”. The “inhibition of TRPM7 mediated inward current” value at TRPM7 [1] (100 μM, divalent-free extracellular solutions, TRPM7-HEK293) is reported as 77%. For the same compound, the half-inhibitory concentration (IC50) was 160 ± 14 µM at TRPM7 [1] (whole-cell recordings, TRPM7-HEK293 and CHOK1-TRPM7 cells, read-out: IC50, TRPM7 mediated outward current); 56 µM on murine TRPM7 (setting [3]). Besides, on murine TRPM7, the “dose dependence of inhibition of TRPM7-mediated fura-2 quench by Mn2+” value (“dose dependence of inhibition … by Mn2+” for short) is listed as “dose dependent inhibition”.

For `[Cl][La]([Cl])[Cl]` [La^3+, LaCl3], on TRPM7 [1] (10 μM), the “block of channel conductance” value is recorded as “ineffective”. Moreover, the “block of inward TRPM7-mediated currents” value on TRPM7 [1] (10 mM) is listed as “almost completely blocked”. For the same compound, the “effect on Mn2+-induced fluorescence quench” value on murine TRPM7 (FIG. 8A, 10 mM MnCl2, HEK293-TRPM7) was “reduced Mn^2+-induced fluorescence quench”. The IC50 at murine TRPM7 (setting [3]) came to 760 µM. The “dose dependence of inhibition … by Mn2+” value on murine TRPM7 was “dose dependent inhibition”.

On to `C=C1CC/C=C(\C)CC[C@@H]2C([C@H](C/C=C(\C)COC(C)=O)OC(C)=O)=CO[C@H](OC(C)=O)[C@@H]12` [waixenicin A], for which the IC50 was determined as 12 µM at murine TRPM7 (read-out: IC50 of the maximal slope of the Mn2+ quench, HEK293-TRPM7, 15 min incubation before 10 mM MnCl2); 7 µM at TRPM7 [2] (0 [Mg2+]i, outward currents at +80 mV at 500 s); 0.016 µM on TRPM7 [2] (700 μM free internal Mg2+). Moreover, the “dose dependence of inhibition … by Mn2+” value at murine TRPM7 is listed as “dose-dependent manner”. Moreover, the “inhibition of TRPM7 currents” value against TRPM7 [2] (10 μM for 300 s, +80 mV, Mg2+- and ATP-free internal solution) is reported as “approximately 50%”. Further, the “TRPM7 current density after application” value on TRPM7 [2] (10 μM for 300 s, +80 mV, Mg2+- and ATP-free internal solution, plateau about 130 pA/pF before) amounted to 67 pA/pF. Moreover, the “block of TRPM7 current” value on TRPM7 [2] (10 μM, 700 μM free internal Mg2+, Mg-ATP omitted) is reported as “completely blocked the current”. The “reversibility of inhibitory effect on washout” value at TRPM7 [2] (washout for another 300 s) is recorded as “failed to reverse its inhibitory effect”.
